Data: ChEMBL document CHEMBL4680246, “Design, synthesis and biological evaluation of novel O-carbamoyl ferulamide derivatives as multi-target-directed ligands for the treatment of Alzheimer's disease” (Eur J Med Chem, 2020)

How the values were obtained:
Mus musculus = assay: Improvement in brain cholinergic activity in scopolamine-induced mouse model of amnesia assessed as change in ChAT vitality at 20 mg/kg (reference value: 28.8 U/g); assay type: functional
Homo sapiens = species: Homo sapiens; assay: Selectivity index, ratio of IC50 for human erythrocytes Ache to IC50 for human serum BuChe
[1] = Toxicity in Zebrafish assessed as small or misshapen brain at 6.25 ug/ml relative to control; assay type: tissue-based, Danio rerio; conditions: in vivo, at 6.25 µg/mL
[2] = Effect on tau protein level in mouse HT22 cells transfected with pRK5-GFP-Tau P301L plasmid assessed as fluorescence intensity at 5 uM by fluorescence microscopy (reference value: 33.6); assay type: functional, HT-22
[3] = Toxicity in Zebrafish assessed as mortality at 25 ug/ml relative to control; set-up: species or system Danio rerio; conditions: in vivo, at 25 µg/mL

For `CCN(C)C(=O)Oc1ccc(/C=C/C(=O)N2CCc3ccccc3C2)cc1OC`, the Activity (Mus musculus) was 54.1 U/g, the Ratio IC50 (Homo sapiens) was 10.9 and the Activity [1] was 26.7%. The Flu intensity [2] was 23.9 and the mortality at 25 ug/ml [3] was 100%.
